Columns and labels:
Escherichia coli [1] = test: Viable count assay (VCA); format: cell-based, Escherichia coli ATCC 25922
Method: Escherichia coli bacteria were grown to mid-logarithmic phase in 10 ml of (3% w/v) Todd-Hewitt (TH), bacteria were washed and diluted in buffer 10 mM Tris, pH 7.4, containing 150 mM NaCl, either alone or with the presence of human 20% citrate plasma, lepirudin, heparin, EDTA plasma, or serum. 1–2 × 10^6 cfu/ml bacteria were incubated in a total volume of 50 μl with the indicated concentrations of C-terminal TFPI-2 derived peptides for 2 h at 37°C. Alternatively, 1–2 × 10^6 cfu/ml of E. coli bacteria in the presence or absence of EDC34 were incubated either in PBS alone or PBS supplemented with 25% of human citrated plasma, immunoglobulins depleted citrated plasma, or immunoglobulins depleted citrated plasma supplemented with 10 μg of IgG/μl, for 2 h at 37°C. Serial of dilutions of the reaction mixture were plated on TH agar plates, followed by the incubation at 37°C overnight. The number of colony forming units was determined as a percentage to control sample.

P. aeruginosa = test: Viable count assay (VCA); format: cell-based, Pseudomonas aeruginosa; details: 20% human citrate plasma, 2 h 37°C (Figure 3A,B); text does not separate the two bacteria
Escherichia coli [2] = test: Radial diffusion assay (RDA); format: cell-based; details: 100 μM peptide, high salt (150 mM NaCl), n = 3 (Figure 3C,D)
Method: Escherichia coli was grown to mid-logarithmic phase in 10 ml (3% w/v) of trypticase soy broth (TSB). Bacteria were washed and re-suspended in 10 mM Tris, pH 7.4 to obtain a dilution of 1% of bacterial suspension (1–2 × 10^9 colony forming units cfu/ml). Subsequently, 6.6 μl of bacteria were added to 15 ml of melted underlay agarose gel consisting of 0.03% (w/v) TSB, 1% (w/v) low electroendosmosis type (EEO) agarose and 0.02% (v/v) Tween 20 (Sigma) with or without 150 mM NaCl. The mixture was poured to a 144 mm sterile petri dish and left to solidify. After that, 4 mm diameter wells were punctured and 100 μM peptides were added to each well. Plates were incubated for 3 h at 37°C and then covered by adding 15 ml of over-lay gel consisting of 6% TSB and 1% Low-EEO agarose in Millipore water. After 16–24 h of incubation at 37°C, the peptides diffusion around each well formed the zone of inhibition, which corresponded to the peptide's antimicrobial activity.

IgG = test: Binding to IgG, SDS-PAGE and immunoblotting; parameters: species or system human
Method: (§1) Three μg of IgG or IgA or IgE or IgM were incubated in 20 μl of buffer (10 mM Tris, 150 mM NaCl, pH 7.4), either alone or with 0.5 μg (6 μM) of EDC34 for 1 h at 37°C. Samples were diluted in SDS buffer and analyzed under non-reducing conditions by SDS-PAGE on Criterion TGX Any kD Gel (BioRad). Alternatively, EDC34 (6 μM) was incubated either alone or in PBS containing 20% serum, citrate, lepirudin, EDTA plasma at different time points (15, 30, 60, and 120 min). Samples were analyzed under non-reducing conditions.
Six μM of EDC34 was either incubated alone or with IgGs in 10 mM Tris, 150 mM NaCl, pH 7.4 buffer, under similar concentrations for 15, 30, 60, 120 min or 24 h at 37°C. In another experiment, 6 μM of EDC34 was pre-incubated with 50 μM of TCEP (tris(2-carboxyethyl)phosphine) for 30 min at room temperature before IgG (6 μM) was added. The mixture was further incubated for 24 h at 37°C. In another experiment, 6 μM of IgG or Fab-IgG or Fc-IgG were incubated with or without 6 μM of EDC34 in 10 mM Tris, 150 mM NaCl, pH 7.4 buffer for 30 min at 37°C. Proteins and peptides were transferred to nitrocellulose membranes (Hybond-C), blocked by 5% (w/v) skimmed milk, washed and incubated with rabbit polyclonal antibodies to CAK27 or rabbit polyclonal antibodies to IgG (or 1:1,000) (Dako) or rabbit polyclonal antibodies to C1q (or 1:1,000) (Dako). […]

IgA = test: Binding to IgA, SDS-PAGE and immunoblotting; parameters: species or system human; details: 0.5 μg EDC34 with 3 μg IgA, 1 h 37°C; immunoblot (Figure 1C)
Method: as §1

IgE = IgE (Homo sapiens, UniProt P01854); test: Binding to IgE, SDS-PAGE and immunoblotting; details: 0.5 μg EDC34 with 3 μg IgE, 1 h 37°C; immunoblot (Figure 1C)
IgE, sequence (P01854 1-428 isoform P01854-1): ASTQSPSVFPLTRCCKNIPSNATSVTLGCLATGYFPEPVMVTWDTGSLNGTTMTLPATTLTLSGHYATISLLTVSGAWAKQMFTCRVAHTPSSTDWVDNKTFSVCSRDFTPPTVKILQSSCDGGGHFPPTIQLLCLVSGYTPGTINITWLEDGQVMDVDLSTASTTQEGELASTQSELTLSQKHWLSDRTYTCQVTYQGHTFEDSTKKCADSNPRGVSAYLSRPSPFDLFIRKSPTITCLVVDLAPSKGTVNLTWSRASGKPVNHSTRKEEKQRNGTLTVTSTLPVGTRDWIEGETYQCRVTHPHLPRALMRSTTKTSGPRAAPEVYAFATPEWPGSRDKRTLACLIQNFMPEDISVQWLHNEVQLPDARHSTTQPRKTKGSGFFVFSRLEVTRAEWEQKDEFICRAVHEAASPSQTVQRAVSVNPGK
Method: as §1

IgM = test: Binding to IgM, SDS-PAGE and immunoblotting; parameters: species or system human; details: 0.5 μg EDC34 with 3 μg IgM, 1 h 37°C; immunoblot (Figure 1C)
IgM, sequence (P01871 1-453 isoform P01871-1): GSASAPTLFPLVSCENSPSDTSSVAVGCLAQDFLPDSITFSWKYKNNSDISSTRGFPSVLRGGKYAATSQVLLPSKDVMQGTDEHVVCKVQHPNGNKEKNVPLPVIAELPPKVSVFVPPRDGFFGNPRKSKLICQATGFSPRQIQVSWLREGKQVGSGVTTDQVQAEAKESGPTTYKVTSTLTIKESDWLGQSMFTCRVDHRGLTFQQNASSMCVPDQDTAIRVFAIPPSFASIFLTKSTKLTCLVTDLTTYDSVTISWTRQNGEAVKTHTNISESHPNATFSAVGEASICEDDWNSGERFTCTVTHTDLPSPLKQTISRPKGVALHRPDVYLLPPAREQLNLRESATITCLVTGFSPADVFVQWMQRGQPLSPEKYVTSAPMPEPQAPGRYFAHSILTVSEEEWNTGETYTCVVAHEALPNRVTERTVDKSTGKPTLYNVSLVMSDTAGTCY
IgM, sequence (P01591 23-159, further chain): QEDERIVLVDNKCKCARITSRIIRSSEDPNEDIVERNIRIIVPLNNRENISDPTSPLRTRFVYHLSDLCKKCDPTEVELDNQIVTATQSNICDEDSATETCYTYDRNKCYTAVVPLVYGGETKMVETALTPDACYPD
Method: as §1

Fc-IgG = test: Binding to Fc fragment of IgG, western blot; details: 6 μM EDC34 with 6 μM Fc-IgG, 30 min 37°C; western blot (Figure 1E)
Method: (§2) Six μM of EDC34 was either incubated alone or with IgGs in 10 mM Tris, 150 mM NaCl, pH 7.4 buffer, under similar concentrations for 15, 30, 60, 120 min or 24 h at 37°C. In another experiment, 6 μM of EDC34 was pre-incubated with 50 μM of TCEP (tris(2-carboxyethyl)phosphine) for 30 min at room temperature before IgG (6 μM) was added. The mixture was further incubated for 24 h at 37°C. In another experiment, 6 μM of IgG or Fab-IgG or Fc-IgG were incubated with or without 6 μM of EDC34 in 10 mM Tris, 150 mM NaCl, pH 7.4 buffer for 30 min at 37°C. Proteins and peptides were transferred to nitrocellulose membranes (Hybond-C), blocked by 5% (w/v) skimmed milk, washed and incubated with rabbit polyclonal antibodies to CAK27 or rabbit polyclonal antibodies to IgG (or 1:1,000) (Dako) or rabbit polyclonal antibodies to C1q (or 1:1,000) (Dako). Polyclonal swine anti-rabbit immunoglobulin secondary HRP antibody (1:1,000) was used for detection and an enhanced chemiluminescent Substrate (LumiGLO) developing system (Upstate cell signaling solutions).

Fab-IgG = test: Binding to Fab fragment of IgG, western blot; details: 6 μM EDC34 with 6 μM Fab-IgG, 30 min 37°C; western blot (Figure 1E)
Method: as §2

human IgG = test: Surface plasmon resonance on IgG-coated chip; format: binding; details: SPR, IgG on CM5 chip, peptide 25–400 nM, 25°C, Hepes running buffer pH 7.5 (Figure 3E)
Method: IgG was immobilized (15 μg/mL) on a CM5 sensor chip via amine coupling in a 10 mM sodium acetate buffer (pH 4). A blank immobilization was performed in flow cell one. EDC34 was injected at different concentrations (25–400 nM) at a flow rate of 30 μl/min and a temperature of 25°C over the flow cells using a running buffer containing 10 mm Hepes, 150 mm NaCl, 0.005% surfactant P20, and 3.4 mM EDTA (pH 7.5). Regeneration of the sensor surface was conducted in 0.5 M sodium chloride. The analysis was performed using a Biacore X100 instrument (GE Healthcare, Uppsala, Sweden) and the data was fitted using a 1:1 binding model.

[3] = tested on: human IgG on E. coli bacteria; test: Pull down assay, IgG opsonization on the bacterial surface; parameters: species or system Escherichia coli
Method: In a total volume of 500 μl PBS buffer, 2 μM of EDC34, and 8 μM of IgG were incubated for 24 h at 37°C. Subsequently, E. coli bacteria (1–2 × 10^6 cfu/ml) were added, and then the mixture was incubated for additional 1 h. In a parallel experiment, the bacteria in the presence of absence of EDC34 were incubated for 30 min at 37°C before IgG was added for 1 h at 37°C. Samples were then centrifuged, bacterial pellets were washed twice with PBS and then re-suspended in 360 μl of 0.1 M glycine, pH 2.0 to elute the bound proteins. The pH of the eluted material was raised to 7.5 with 1 M Tris. Thereafter, 100 μl of 100% TCA were added to precipitate the eluted proteins followed by incubation for 10 min at −20° C followed by a centrifugation step for 20 min at 15,000 × g (4°C). The pellets were washed with acetone and left to air dry before they were dissolved in loading dye and analyzed under non-reducing conditions by SDS-PAGE, followed by Western blot analysis.

[4] = tested on: C1q on the surface of E. coli bacteria; test: Pull down assay, C1q recruitment to the bacterial surface; parameters: species or system Escherichia coli; details: citrate plasma with 10 μM EDC34, 1 h 37°C; anti-C1q immunoblot; versus plasma alone (Figure 2B)
C1q = details: cited from earlier work
Excerpt: (§3) Previous studies have shown that complement activation can be amplified by targeting certain proteins such as complement factor C3 ([33]). Elvington et al. for instance described in 2012 a method showing that complement activation can be used as cancer therapy. To this end the authors employed a fusion protein of a complement receptor and an IgG Fc fragment to improve the outcome of mAb therapy in a murine metastatic cancer model ([33]). […] Moreover EDC34 is able to up re ...

C3a = details: cited from earlier work
Excerpt: as §3

Gram-negative bacteria = details: cited from earlier work
Excerpt: as §3

**Q.** For “DAAQEPTGNNAET [DAA14, control peptide derived from the N-terminal region of human TFPI-2, reference compound]”, which “antimicrobial activity in plasma, E. coli” value (Escherichia coli [1]; 20% human citrate plasma, 2 h 37°C (Figure 3A,B), text does not separate the two bacteria) is on record?
**A.** Its value is “no antimicrobial activity”.

**Q.** And the “antimicrobial activity in plasma, P. aeruginosa” value (P. aeruginosa)?
**A.** The value was “no antimicrobial activity”.

**Q.** Which “antimicrobial activity against E. coli” value (Escherichia coli [1]; EDC34 6 μM, 10 mM Tris, 150 mM NaCl, pH 7.4 with 20% citrate plasma, 2 h 37°C, n = 3 (Figure 1A)) does the source give for “EDCKRACAKALKKKKKMPKLRFASRIRKIRKKQF [EDC34, C-terminal peptide derived from human TFPI-2]” here?
**A.** The value was “completely eradicate the bacteria”.

**Q.** What about the “antimicrobial activity against E. coli” value (Escherichia coli [1]; EDC34 6 μM, buffer with 20% EDTA plasma, 2 h 37°C, n = 3 (Figure 1A)) of the same sequence?
**A.** Its value is “decreased”.

**Q.** And the bacterial survival rate (Escherichia coli [1]; EDC34 6 μM, buffer with 20% heparin plasma, 2 h 37°C, n = 3 (Figure 1A))?
**A.** The bacterial survival rate was “exceeding 80%”.

**Q.** And the “antimicrobial activity against E. coli” value (Escherichia coli [1]; EDC34 6 μM, buffer with 20% lepirudin plasma, 2 h 37°C, n = 3 (Figure 1A))?
**A.** Its value is “decreased”.

**Q.** What about the “antimicrobial activity against E. coli” value (Escherichia coli [1]; EDC34 6 μM, buffer with 20% serum, 2 h 37°C, n = 3 (Figure 1A)) of the same sequence?
**A.** The value was “decreased”.

**Q.** What about the “killing of E. coli” value (Escherichia coli [1]; EDC34 in PBS alone, 2 h 37°C, n = 3 (Figure 2C)) of the same sequence?
**A.** Its value is “moderate killing activity”.

**Q.** And the “killing of E. coli” value (Escherichia coli [1]; EDC34 in PBS with 25% citrate plasma, 2 h 37°C, n = 3 (Figure 2C))?
**A.** The value was about 100%.

**Q.** And the antimicrobial activity (Escherichia coli [1]; EDC34 in PBS with 25% immunoglobulin-depleted citrate plasma reconstituted with IgG, 2 h 37°C, n = 3 (Figure 2C))?
**A.** The antimicrobial activity was “retained its full antimicrobial activity”.

**Q.** What about the bacterial survival (Escherichia coli [1]; EDC34 in PBS with 25% immunoglobulin-depleted citrate plasma, 2 h 37°C, n = 3 (Figure 2C)) of the same sequence?
**A.** Its bacterial survival is “Bacterial survival was increased”.

**Q.** And the “antimicrobial activity, zone of inhibition” value (Escherichia coli [2])?
**A.** Its value is “able impair bacterial growth”.

**Q.** What about the “binding to IgG” value (IgG; 0.5 μg EDC34 with 3 μg IgG, 10 mM Tris, 150 mM NaCl, pH 7.4, 1 h 37°C, immunoblot (Figure 1C)) of the same sequence?
**A.** Its value is “avidly binds”.

**Q.** What about the “interaction with IgG over time” value (IgG; EDC34 and IgG 1:1 (6 μM), 37°C, after 24 h incubation (Figure 1D)) of the same sequence?
**A.** The value was “entirely absorbed”.

**Q.** What about the “binding to IgA” value (IgA) of the same sequence?
**A.** Its value is “avidly binds”.

**Q.** And the “binding to IgE” value (IgE)?
**A.** The value was “avidly binds”.

**Q.** What about the “binding to IgM” value (IgM) of the same sequence?
**A.** The value was “avidly binds”.

**Q.** What about the “binding to Fc fragment of IgG” value (Fc-IgG) of the same sequence?
**A.** Its value is “able to bind”.

**Q.** What about the “binding to Fab fragment of IgG” value (Fab-IgG) of the same sequence?
**A.** Its value is “only the Fc fragment is able to bind”.

**Q.** And the “affinity for human IgG” value (human IgG)?
**A.** Its value is “highest affinity”.

**Q.** What about the “opsonization of immunoglobulin on the bacterial surface” value ([3]; EDC34 (2 μM) pre-incubated with IgG (8 μM) 24 h in PBS, then E. coli 1 h 37°C (Figure 2A)) of the same sequence?
**A.** Its value is “increased opsonization”.

**Q.** What about the “opsonization of immunoglobulin on the bacterial surface” value ([3]; EDC34 first preincubated with E. coli bacteria, then mixed with human IgG (Figure 2A)) of the same sequence?
**A.** The value was “less pronounced”.

**Q.** What about the “C1q at the surface of E. coli bacteria” value [4] of the same sequence?
**A.** Its value is “recruitment of C1q”.

**Q.** And the “binding of C1q to bacterial surfaces” value (C1q)?
**A.** Its value is “enhances the binding of C1q to bacterial surfaces”.

**Q.** What about the “antimicrobial activity of C3a” value (C3a) of the same sequence?
**A.** Its value is “able to up regulate the antimicrobial activity of C3a”.

**Q.** What about the “eradication of Gram-negative bacteria in vivo” value (Gram-negative bacteria) of the same sequence?
**A.** The value was “significant capacity to eradicate”.

Source: paper PMC6141739, “TFPI-2 Protects Against Gram-Negative Bacterial Infection” (Frontiers in Immunology, 2018)
